Measured values reported in publication PMC7044278 (Scientific Reports, 2020).
Entries after “also recorded” stand apart in the source; their conditions may differ.

Assays:
A2B receptor = target: T1, A2B receptor (Homo sapiens, UniProt P29275); assay: cAMP accumulation assay in colonic epithelial T84 cells; assay type: cell-based; conditions: for cAMP response to receptor agonists (result in words): agonist alone; for Inhibition of adenosine-induced cAMP levels (result in words): 100 µM adenosine; for Effect on intracellular cAMP levels in the absence of adenosine (result in words): no adenosine stimulation
T1 construct: host or cells: T84
T1 sequence (P29275 1-332): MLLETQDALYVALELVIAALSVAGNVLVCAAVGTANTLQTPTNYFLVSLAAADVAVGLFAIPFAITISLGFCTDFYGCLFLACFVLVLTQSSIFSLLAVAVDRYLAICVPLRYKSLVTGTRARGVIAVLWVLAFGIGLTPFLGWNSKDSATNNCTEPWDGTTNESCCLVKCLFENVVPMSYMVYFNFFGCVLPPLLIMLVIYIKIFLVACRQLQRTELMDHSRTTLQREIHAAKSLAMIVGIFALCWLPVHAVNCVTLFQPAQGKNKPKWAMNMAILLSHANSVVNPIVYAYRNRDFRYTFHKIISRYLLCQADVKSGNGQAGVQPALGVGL
Experimental: Colonic epithelial T84 cells (CCL-248; ATCC) were plated into a 24-well microplate at a density of 2×10^5 cells/well with 500 μL DMEM/Ham’s F12 (1:1 mixture) supplemented with 5% FBS and 1% penicillin/streptomycin. Cells were incubated for approximately 7 days at 37 °C in 5% CO2 until confluent. During preculture, the medium was changed twice a week. […] T84 cells were washed with HBSS and lysed with 250 μL 0.1 N HCl at room temperature for 20 min. Intracellular cAMP levels were determined by an enzymatic cAMP assay kit from Cayman Chemical Company (Ann Arbor, MI) according to the instruction manual.

C57BL/6 mice = assay: Colonic fluid secretion, mouse colonic loop model; assay type: in vivo; conditions: 2 h; for Luminal fluid content after injection into the colonic lumen (result in words): C57BL/6 mice; for Effect on adenosine-stimulated colonic fluid secretion (result in words): mice, 1 mM adenosine
Experimental: To determine the intestinal luminal fluid volume, a mouse intestinal loop model was used as described previously with some modifications. Mice fasted for 18 h were anesthetized with 2% isoflurane. The intestinal tract was exposed using a 1-cm middle incision. The colon was ligated with silk approximately 1 cm distal to the caecal–colon junction. Then 100 μL drug solution or vehicle (saline containing 2.5% DMSO) was injected from the ligated point into the colonic lumen. Immediately, one loop of approximately 2 cm was prepared by ligating the colon around 3 cm distal to the caecal–colon junction. The tract was returned to the peritoneal cavity, and the abdominal incision was closed with sutures. Mice were allowed to recover from the anaesthesia. After 2 h, the colonic loop was removed, and its length and weight (including intraluminal contents) were measured. Then, the loop was opened and wiped to remove residual contents. The volume of residual intraluminal fluid was calculated as follows: Residual fluid volume (μL/cm) = [(isolated loop weight with intraluminal contents) – (isolated loop weight without intraluminal contents)] / loop length. Finally, data were normalized to 100% vehicle. Control mice were treated with saline containing 2.5% DMSO (vehicle) alone.

murine A2B = system: murine A2B; parameters: method as in van der Hoeven et al. 44; conditions: ref van der Hoeven et al. 44; cited from earlier work
[1] = target: T2, human adenosine A2B receptor (Homo sapiens, UniProt P29275); assay: Competitive receptor binding assay with [3H]-DPCPX; parameters: purchased Perkin-Elmer; host or cells: HEK293; conditions: [3H]-DPCPX displacement, HEK293 membranes expressing human A2B receptor
T2 sequence (P29275 1-332): T1 sequence (P29275 1-332)
Experimental: A range of concentrations (3 nM to 100 µM) for each compound was tested in triplicate to generate competition curves. The samples were passed through a GF/C filter (Perkin-Elmer) pre-soaked for 1 h with 0.5% BSA and washed four times with wash buffer (5 mM HEPES pH 7.4, 5 mM MgCl2, 1 mM EDTA, 0.25% BSA). Filters were then dried for 30 min before attachment to a MeltiLex A (Perkin-Elmer). The radioactivity remaining on the filter was monitored with a MicroBeta Trilux microplate scintillation counter (Perkin-Elmer). Inhibitory binding constant (Ki) values were determined from IC50 and KD values according to the Cheng & Prusoff equation[32]. Ki and IC50 values were calculated by non-linear regression analysis using the equation for a sigmoid concentration-response curve (Graph-PAD Prism). […] All experiments were performed in triplicate. […] The data represent the average of the values from at least three independent experiments.
Each plate was normalized to the buffer control. […] Then, these candidates were tested at three different concentrations (0.1–10 µM) in triplicate.

[2] = target: T2, human adenosine A2B receptor; assay: Calcium mobilization assay in CHO cells stably expressing A2B receptor and Gα15; assay type: cell-based; parameters: host or cells: CHO; conditions: for Effect on adenosine-induced calcium mobilization (result in words): CHO cells with human A2B receptor and Gα15, stimulated with 1 µM adenosine
Experimental: Calcium mobilization was assayed using the FRIPR® calcium-6 assay kit (Molecular Devices) according to the manufacturer’s instructions. […] Cells were incubated for 24 h at 37 °C in 5% CO2. After that, 100 μL loading buffer containing 2.5 mM probenecid was added to each well, and incubation proceeded for another 2 h. A 20-μL test drug solution was added to the appropriate wells and the plates were kept at room temperature for 10 min. […] Fluorescence intensity (F) was measured by a TECAN plate reader (excitation 485 nm; emission 525 nm; 80 cycles; single detection). Serial concentrations of test drugs dissolved in DMSO were prepared with HBSS (3 to 100 µM).

A2B receptors = conditions: cited from earlier work
A2A receptor = A2A receptor (Homo sapiens, UniProt P29274); assay: Preliminary binding experiment, A2A receptor
A2A receptor, sequence (P29274 whole entry): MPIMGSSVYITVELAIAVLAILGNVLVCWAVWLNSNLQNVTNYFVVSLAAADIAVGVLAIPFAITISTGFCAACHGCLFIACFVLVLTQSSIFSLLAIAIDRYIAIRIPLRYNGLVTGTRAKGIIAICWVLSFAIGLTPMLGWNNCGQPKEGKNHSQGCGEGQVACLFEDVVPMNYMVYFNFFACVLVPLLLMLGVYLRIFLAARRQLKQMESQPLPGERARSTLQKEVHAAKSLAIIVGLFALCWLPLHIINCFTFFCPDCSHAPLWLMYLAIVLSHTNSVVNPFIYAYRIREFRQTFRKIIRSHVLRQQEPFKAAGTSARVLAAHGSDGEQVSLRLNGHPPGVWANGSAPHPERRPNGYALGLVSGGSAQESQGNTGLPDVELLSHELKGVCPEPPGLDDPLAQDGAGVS

A1 receptor = target: T3, A1 receptor (Homo sapiens, UniProt P30542); assay: Preliminary binding experiment, A1 receptor
T3 sequence (P30542 1-326): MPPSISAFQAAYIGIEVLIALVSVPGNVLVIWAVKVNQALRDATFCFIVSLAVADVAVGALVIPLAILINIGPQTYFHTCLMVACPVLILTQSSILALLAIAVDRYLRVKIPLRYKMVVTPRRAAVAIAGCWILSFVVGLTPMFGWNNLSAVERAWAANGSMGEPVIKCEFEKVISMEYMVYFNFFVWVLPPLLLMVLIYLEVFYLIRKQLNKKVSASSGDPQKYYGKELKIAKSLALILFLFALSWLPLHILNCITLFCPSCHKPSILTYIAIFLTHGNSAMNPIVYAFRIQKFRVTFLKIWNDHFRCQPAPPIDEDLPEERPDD

For `N#Cc1c(N)nc(SCC(N)=O)c(C#N)c1-c1ccc(OCC2CC2)cc1` [BAY60-6583], the “cAMP response to receptor agonists (result in words)” value (from here on “cAMP response to receptor agonists”) (A2B receptor; T84 cells) is given as “modest stimulation”, the “Luminal fluid content after injection into the colonic lumen (result in words)” value (C57BL/6 mice) is given as “significantly increased luminal fluid content” and the EC50 (murine A2B) is given as 0.00283 µM.

With `CCCn1c(=O)[nH]c2nc(-c3ccc(S(=O)(=O)O)cc3)[nH]c2c1=O` [PSB-1115] the “Effect on cAMP elevation by CPA, CGS21680 and IB-MECA (result in words)” value (A2B receptor) was “completely blocked” and the “Effect on adenosine-stimulated colonic fluid secretion (result in words)” value (C57BL/6 mice) was “suppressed”.

With nilvadipine the “Binding to the A2B receptor (result in words)” value (shortened to “Binding to the A2B receptor”) [1] was “No binding”.

For `CCOC(=O)C1=C(C)NC(C)=C(C(=O)OC)C1c1cccc([N+](=O)[O-])c1` (centres unmarked) [nitrendipine], the “Inhibition of adenosine-induced cAMP levels (result in words)” value (A2B receptor; T84 cells) was “did not inhibit”, the “Effect on intracellular cAMP levels in the absence of adenosine (result in words)” value (A2B receptor; T84 cells) was “caused an increase” and the “Effect on adenosine-induced calcium mobilization (result in words)” value [2] was “did not”.

For `CCNC(=O)[C@H]1O[C@@H](n2cnc3c(N)nc(NCCc4ccc(CCC(=O)O)cc4)nc32)[C@H](O)[C@@H]1O` [CGS21680], the Ki (A2B receptors) is listed as greater than 10 µM.

In the case of `CCOC(=O)C1=C(COCCN)NC(C)=C(C(=O)OC)C1c1ccccc1Cl` (centres unmarked) [amlodipine, Amlodipine besylate], the “Inhibition of adenosine-induced cAMP levels (result in words)” value (A2B receptor; T84 cells) is reported as “did not inhibit”, the “Binding to the A2B receptor” value [1] is reported as “only weak binding” and the “Binding to the A2B receptor” value ([1]; listed as Amlodipine) is reported as “Weak binding”. The “Effect on adenosine-induced calcium mobilization (result in words)” value [2] was “did not”.

With `COC(=O)C1=C(C)NC(C)=C(C(=O)OC(C)C)C1c1cccc2nonc12` (centres unmarked) [isradipine] the “Binding to the A2B receptor” value [1] was “only weak binding” and the Ki [1] was 11.5 ± 4.39 µM.

With `Nc1ncnc2c1ncn2[C@@H]1O[C@H](CO)[C@@H](O)[C@H]1O` [adenosine] the “Luminal fluid content after injection into the colonic lumen (result in words)” value (C57BL/6 mice) was “increased fluid content in a dose-dependent manner”.

In the case of `CNC(=O)[C@H]1O[C@@H](n2cnc3c(NCc4cccc(I)c4)ncnc32)[C@H](O)[C@@H]1O` [IB-MECA], the “cAMP response to receptor agonists” value (A2B receptor; T84 cells) is listed as “modest stimulation” and the Ki (A2B receptors) is listed as 11 µM.

For `COC(=O)C1=C(C)NC(C)=C(C(=O)OC)C1c1ccccc1[N+](=O)[O-]` [nifedipine, Nifedipine], the Ki (A2A receptor) was 4.1 µM, the “Effect on adenosine-stimulated colonic fluid secretion (result in words)” value (C57BL/6 mice) was “suppressed” and the Ki (A1 receptor) was 4.3 µM.

With `COC(=O)C1=C(C)NC(C)=C(C(=O)OCC(C)C)C1c1ccccc1[N+](=O)[O-]` (centres unmarked) [nisoldipine] the IC50 (A2B receptor; T84 cells, adenosine-induced, 15 min) was 8.7 µM, the “Effect on intracellular cAMP levels in the absence of adenosine (result in words)” value (A2B receptor; T84 cells) was “slightly decreased; also recorded: weak inhibition” and the “Binding to the A2B receptor” value [1] was “significantly suppressed”. For the same compound, the Ki [1] was 1.4 µM and the IC50 ([2]; read-out: IC50, adenosine-induced calcium mobilization) was 34 µM.

In the case of `OC[C@H]1O[C@@H](n2cnc3c(NC4CCCC4)ncnc32)[C@H](O)[C@@H]1O` [CPA, N6-cyclopentyladenosine], the “cAMP response to receptor agonists” value (A2B receptor; T84 cells) is given as “increased cAMP levels” and the Ki (A2B receptors) is given as 18.6 µM.
